# Results reported in PubChem BioAssay (NCI).
#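 Assay format: 96-well plates, 48-hour exposure. Here, GI50 denotes the concentration required for 50% inhibition of growth. TGI marks complete inhibition of growth.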
# Legend:
# Experiment in all cases: NCI-60 cell line screen, 48 h
# SK-OV-3 ovarian = system: SK-OV-3 ovarian
# SNB-19 CNS = system: SNB-19 CNS
# A498 renal = system: A498 renal
# RPMI-8226 leukemia = system: RPMI-8226 leukemia
# HL-60(TB) leukemia = system: HL-60(TB) leukemia
# SNB-75 CNS = system: SNB-75 CNS
# EKVX NSCLC = system: EKVX NSCLC
# ACHN renal = system: ACHN renal
# M14 melanoma = system: M14 melanoma
# HOP-92 NSCLC = system: HOP-92 NSCLC
Structure (SMILES),GI50 (SK-OV-3 ovarian),TGI (SK-OV-3 ovarian),GI50 (SNB-19 CNS),TGI (SNB-19 CNS),GI50 (A498 renal),TGI (A498 renal),GI50 (RPMI-8226 leukemia),TGI (RPMI-8226 leukemia),GI50 (HL-60(TB) leukemia),TGI (HL-60(TB) leukemia),GI50 (SNB-75 CNS),TGI (SNB-75 CNS),GI50 (EKVX NSCLC),TGI (EKVX NSCLC),GI50 (ACHN renal),TGI (ACHN renal),GI50 (M14 melanoma),TGI (M14 melanoma),GI50 (HOP-92 NSCLC),TGI (HOP-92 NSCLC)
CC(C)OP(=O)(OC(C)C)C(N(C)C)P(=O)(OC(C)C)OC(C)C.[Cl][Sn]([Cl])([Cl])[c]1ccccc1,3.67 µM,17.3 µM,17.8 µM,> 100 µM,14.2 µM,89.8 µM,1.84 µM,5 µM,1.63 µM,4.84 µM,4.01 µM,39.5 µM,3.49 µM,52.5 µM,3.3 µM,> 100 µM,,,,
O=C1C=C(Nc2cccc(Br)c2)c2ccccc2C1=O,6.42 µM,30 µM,6.56 µM,> 100 µM,4.06 µM,27.2 µM,22.2 µM,> 100 µM,9.56 µM,34.5 µM,0.39 µM,5.01 µM,,,0.957 µM,> 100 µM,0.611 µM,13.1 µM,,
COc1ccc(C[C@H]2C[C@@H](O)[C@@H](C)C/C=C/Cc3cccc(O)c3C(=O)O2)cn1,45.6 µM,> 100 µM,38.9 µM,> 100 µM,0.712 µM,31.4 µM,,,15.3 µM,38.4 µM,17 µM,73.4 µM,32.1 µM,> 100 µM,25.5 µM,65.9 µM,18.7 µM,36.6 µM,,
O=C(Oc1c(I)ccccc1=O)c1ccc([N+](=O)[O-])cc1,,,,46.5 µM,,17 µM,,88 µM,,46.5 µM,,,,28.3 µM,,68.5 µM,,73.3 µM,,
Cc1ccc([P+](Cc2ccc([N+](=O)[O-])cc2)(c2ccc(C)cc2)c2ccc(C)cc2)cc1,12 µM,25.2 µM,3.25 µM,13.6 µM,2.54 µM,12.7 µM,1.02 µM,4.86 µM,0.997 µM,3.14 µM,1.99 µM,8.77 µM,,,15.8 µM,38.4 µM,2.96 µM,12.3 µM,,
Cc1nnc2n1N=C(CC(=O)c1ccc(O)cc1O)CN2N,,> 100 µM,,> 100 µM,,> 100 µM,,,,> 100 µM,,,,> 100 µM,,> 100 µM,,> 100 µM,,
CC(=O)NC1C(OCc2ccccc2)OC(COC(=O)CCCCCCCCCCNC(=O)c2cccc3c(=O)c4ccccc4[nH]c23)C(O)C1OC(C)C(=O)NC(C)C(=O)NC(CCC(N)=O)C(N)=O (centres undefined),,> 100 µM,,> 100 µM,,> 100 µM,,> 100 µM,,> 100 µM,,> 100 µM,,> 100 µM,,> 100 µM,,> 100 µM,,
O=C(/C=C/N1CCN(c2cccc(C(F)(F)F)c2)CC1)c1ccc(Cl)cc1Cl,36.2 µM,98.2 µM,47.7 µM,> 100 µM,21.6 µM,38.8 µM,25.9 µM,70.8 µM,,,,,27.9 µM,65.4 µM,23.4 µM,46.9 µM,17.2 µM,36.1 µM,20.6 µM,50.7 µM
Brc1ccc2c(c1)C1(c3cc(Br)ccc3-2)c2cc(Br)ccc2-c2ccc(Br)cc21,,> 100 µM,,> 100 µM,,,,> 100 µM,,> 100 µM,,,,> 100 µM,,> 100 µM,,> 100 µM,,
COc1ccc2cccc(C(=N)c3ccc(C)c4c3CCC4)c2c1,,29.9 µM,,23.3 µM,,5.87 µM,,,,9.12 µM,,27.2 µM,,30.1 µM,,21.7 µM,,18.6 µM,,
COc1ccc([Se]c2ccc(OC)cc2OC)c(OC)c1,,92.1 µM,,> 100 µM,,70.3 µM,,> 100 µM,,> 100 µM,,36.9 µM,,,,> 100 µM,,> 100 µM,,16.3 µM
COc1ccc2c(c1O)[C@@]13C=C(O)C(=O)C=C1[C@@H](C2)N(C)CC3,,> 100 µM,,> 100 µM,,,,> 100 µM,,> 100 µM,,> 100 µM,,> 100 µM,,> 100 µM,,> 100 µM,,> 100 µM
COc1cc[nH]c1/C=C1\C(=O)Nc2ccc(F)c(C#CC3(O)CCOCC3)c21,0.441 µM,> 25 µM,1.02 µM,> 19.5 µM,0.573 µM,1.67 µM,0.76 µM,1.76 µM,0.686 µM,1.6 µM,0.338 µM,1.94 µM,,,0.487 µM,> 25 µM,0.664 µM,4.28 µM,0.678 µM,2.02 µM
COc1cc(C2C3=C(COC3=O)N(CCO)c3cc4c(cc32)CCC4)cc(OC)c1O (centres undefined),0.168 µM,> 32.5 µM,0.318 µM,> 32.5 µM,0.131 µM,5.64 µM,0.838 µM,> 32.5 µM,0.0874 µM,0.448 µM,,,1.38 µM,> 32.5 µM,0.706 µM,> 32.5 µM,0.179 µM,,> 32.5 µM,> 32.5 µM
O=C1[C@H]2C(c3ccccc3)=NN(C(=O)c3ccccc3)[C@H]2C(=O)N1c1ccccc1,,> 100 µM,,> 100 µM,,,,> 100 µM,,,,> 100 µM,,> 100 µM,,> 100 µM,,> 100 µM,,
NC(Cc1nn[nH]n1)C(=O)O (centres undefined),,> 100 µM,,> 100 µM,,> 100 µM,,> 100 µM,,,,> 100 µM,,> 100 µM,,> 100 µM,,> 100 µM,,> 100 µM
COC(=O)c1cc(Nc2ccc(O)c3c2C(=O)c2c([N+](=O)[O-])ccc(O)c2C3=O)cc(C(=O)OC)c1,> 100 µM,> 100 µM,22.2 µM,> 100 µM,20.8 µM,> 100 µM,3.84 µM,> 100 µM,18.4 µM,88.2 µM,,,,,21.3 µM,> 100 µM,3.15 µM,> 100 µM,22 µM,> 100 µM
O=C1c2ccccc2-c2cc3ccccc3c(=O)n21,,,,> 100 µM,,,,> 100 µM,,,,> 100 µM,,> 100 µM,,> 100 µM,,> 100 µM,,
CCC1OCCN1C(C)C (centres undefined),,> 100 µM,,> 100 µM,,> 100 µM,,> 100 µM,,> 100 µM,,,,86.8 µM,,> 100 µM,,,,
COC(=O)C12CC(C3CC31)C1CC12 (centres undefined),,> 100 µM,,> 100 µM,,> 100 µM,,> 100 µM,,> 100 µM,,,,,,> 100 µM,,> 100 µM,,> 100 µM
